Test results: patent US10149876B2, “Tripterygium wilfordii extracts to overcome chemotherapy resistance” (WESTERN UNIVERSITY OF HEALTH SCIENCES, priority 2012, dated 2018)
Several values for one entry are separate records, joined by “and”; a condition that tells them apart may be missing. Equal values may be shown once. Read-outs that look alike come from different tables or passages of the source.

What was measured:
[1] = system: K562 cells; experiment: SRB cell viability assay, daunorubicin-sensitive K562 cells; type: cell-based, human; details: 72 h, background = 0.044; for mean A at 565 nm: no LGT-E pre-treatment; for mean A at 516 nm: pre-treated with 25 μg/ml LGT-E
Protocol: Cell culture of the above cell lines was performed as described in Example 2, except that 5,000, rather than 3,000 cells were plated per well for the K562, K562/Dox, BT474, SkBr3 lines.
Table 17 also contains the serially-diluted concentrations of drugs that each cell line was tested against.
Table 36 reports the cell viability data relating to pre-treatment with LTG-E prior to daunorubicin treatment. Table 37 reports control data obtained from cells that were not pre-treated with LGT-E prior to daunorubicin treatment. FIG. 15 summarizes the data of Tables 36 and 37 in a graphical format.

[2] = system: DU145-TxR cells; experiment: SRB cell viability assay, docetaxel-resistant DU145-TxR cells; type: cell-based; details: Homo sapiens; for IC50: docetaxel, DU-145-TxR; for viability at 1 pM / viability at 0.0001 µM / viability at 0.000333 µM / viability at 0.001 µM / viability at 0.00333 µM / viability at 0.01 µM / viability at 0.0333 µM / viability at 0.1 µM: read-out: % viable, DU145-TxR; for viability at 1 pM: docetaxel 0.001 nM 72 h; for viability at 0.0001 µM: docetaxel 0.1 nM 72 h; for viability at 0.000333 µM: docetaxel 0.333 nM 72 h; for viability at 0.001 µM: docetaxel 1 nM 72 h; for viability at 0.00333 µM: docetaxel 3.33 nM 72 h; for viability at 0.01 µM: docetaxel 10 nM 72 h; for viability at 0.0333 µM: docetaxel 33.3 nM 72 h; for viability at 0.1 µM: docetaxel 100 nM 72 h
Protocol: Using the methods described in Example 2, the chemosensitizing effect of LGT-E pretreatment on docetaxel-treated DU145-TrX cells was studied. […] The DU145-TxR cells were plated at passage 38. […] Tables 6, 8, and 10 report control data obtained from DU145-TxR cells that were not pre-treated with LGT-E. FIG. 4 summarizes the data of Tables 5-10 in a graphical format.

[3] = Docetaxel 0.001 nM (so in the source)
[4] = Docetaxel 0.1 nM (so in the source)
[5] = Docetaxel 3.33 nM (so in the source)
[6] = Docetaxel 10 nM (so in the source)
[7] = Docetaxel 33.3 nM (so in the source)
[8] = Docetaxel 100 nM (so in the source)

SMILES: CC(=O)O[C@@]12CO[C@@H]1C[C@H](O)[C@@]1(C)C(=O)[C@H](O)C3=C(C)[C@@H](OC(=O)[C@H](O)[C@@H](NC(=O)OC(C)(C)C)c4ccccc4)C[C@@](O)([C@@H](OC(=O)c4ccccc4)[C@H]21)C3(C)C [Docetaxel, docetaxel]
- mean A at 565 nm [1, 3]: 2.844
- mean A at 516 nm [1, 3]: 2.860
- mean A at 565 nm [1, 4]: 2.874
- mean A at 516 nm [1, 4]: 2.851
- mean A at 565 nm ([1]; Docetaxel 0.333 nM (so in the source)): 2.274
- mean A at 565 nm ([1]; Docetaxel 1 nM (so in the source)): 1.414
- mean A at 565 nm [1, 5]: 1.269
- mean A at 516 nm [1, 5]: 1.331
- mean A at 565 nm [1, 6]: 0.732
- mean A at 516 nm [1, 6]: 1.148
- mean A at 565 nm [1, 7]: 0.300
- mean A at 516 nm [1, 7]: 0.723
- mean A at 565 nm [1, 8]: 0.436
- mean A at 516 nm [1, 8]: 0.553
- IC50 ([2]; LGT-E 25 μg/ml pre-treatment, read-out: IC50 of drug when cells pre-treated with Chemosensitizing Agent before drug treatment): 5.76 nM and 0.00465 µg/mL
- IC50 ([2]; line of LGT-E 25 μg/ml, read-out: IC50 of drug when cells treated with drug only): > 100 nM and ≥ 0.0808 µg/mL
- viability at 1 pM ([2]; LGT-E 25 μg/ml pre-treatment): 100%
- viability at 0.0001 µM ([2]; LGT-E 25 μg/ml pre-treatment): 102%
- viability at 0.000333 µM ([2]; LGT-E 25 μg/ml pre-treatment): 102%
- viability at 0.001 µM ([2]; LGT-E 25 μg/ml pre-treatment): 98.6%
- viability at 0.00333 µM ([2]; LGT-E 25 μg/ml pre-treatment): 74.7%
- viability at 0.01 µM ([2]; LGT-E 25 μg/ml pre-treatment): 33.5%
- viability at 0.0333 µM ([2]; LGT-E 25 μg/ml pre-treatment): 13.7%
- viability at 0.1 µM ([2]; LGT-E 25 μg/ml pre-treatment): 6.2%
- viability at 1 pM ([2]; LGT-E 50 μg/ml pre-treatment): 100%
- viability at 0.000333 µM ([2]; LGT-E 50 μg/ml pre-treatment): 97%
- viability at 0.001 µM ([2]; LGT-E 50 μg/ml pre-treatment): 82.1%
- viability at 0.00333 µM ([2]; LGT-E 50 μg/ml pre-treatment): 34.4%
- viability at 0.01 µM ([2]; LGT-E 50 μg/ml pre-treatment): 11.6%
- viability at 0.0333 µM ([2]; LGT-E 50 μg/ml pre-treatment): 5.4%
- viability at 0.1 µM ([2]; LGT-E 50 μg/ml pre-treatment): 5.5%
- viability at 1 pM ([2]; LGT-E […] pre-treatment): 100%
- viability at 0.0001 µM ([2]; LGT-E […] pre-treatment): 98.1%
- viability at 0.000333 µM ([2]; LGT-E […] pre-treatment): 96%
- viability at 0.001 µM ([2]; LGT-E […] pre-treatment): 98.1%
- viability at 0.00333 µM ([2]; LGT-E […] pre-treatment): 91.5%
- viability at 0.01 µM ([2]; LGT-E […] pre-treatment): 82.9%
- viability at 0.0333 µM ([2]; LGT-E […] pre-treatment): 41%
- viability at 0.1 µM ([2]; LGT-E […] pre-treatment): 17.5%
- viability at 1 pM ([2]; no pre-treatment (Table 6)): 100%
- viability at 0.0001 µM ([2]; no pre-treatment (Table 6)): 103%
- viability at 0.000333 µM ([2]; no pre-treatment (Table 6)): 102%
- viability at 0.001 µM ([2]; no pre-treatment (Table 6)): 102%
- viability at 0.00333 µM ([2]; no pre-treatment (Table 6)): 102%
- viability at 0.01 µM ([2]; no pre-treatment (Table 6)): 102%
- viability at 0.0333 µM ([2]; no pre-treatment (Table 6)): 101%
- viability at 0.1 µM ([2]; no pre-treatment (Table 6)): 94.8%
- viability at 1 pM ([2]; no pre-treatment (Table 8)): 100%
- viability at 0.0001 µM ([2]; no pre-treatment (Table 8)): 102%
- viability at 0.000333 µM ([2]; no pre-treatment (Table 8)): 102%
- viability at 0.001 µM ([2]; no pre-treatment (Table 8)): 102%
- viability at 0.00333 µM ([2]; no pre-treatment (Table 8)): 102%
- viability at 0.01 µM ([2]; no pre-treatment (Table 8)): 100%
- viability at 0.0333 µM ([2]; no pre-treatment (Table 8)): 98.1%
- viability at 0.1 µM ([2]; no pre-treatment (Table 8)): 91%
- viability at 1 pM ([2]; no pre-treatment (Table 10)): 100%
- viability at 0.0001 µM ([2]; no pre-treatment (Table 10)): 101%
- viability at 0.000333 µM ([2]; no pre-treatment (Table 10)): 97.7%
- viability at 0.001 µM ([2]; no pre-treatment (Table 10)): 99.3%
- viability at 0.00333 µM ([2]; no pre-treatment (Table 10)): 98.8%
- viability at 0.01 µM ([2]; no pre-treatment (Table 10)): 97.2%
- viability at 0.0333 µM ([2]; no pre-treatment (Table 10)): 95.4%
- viability at 0.1 µM ([2]; no pre-treatment (Table 10)): 90.9%
